Results reported in ChEMBL document CHEMBL1201862, “PubChem BioAssay data set” (2004).
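Results reflect a 48-hour exposure of cells in 96-well plates to compound at five concentrations. Here, GI50 denotes the concentration required for 50% inhibition of growth.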 Activity calls are given as the source filed them. Cut-off read from the data, not from the text of the source: active = GI50 up to about 1.1 µM and inactive = higher.

Tests used:
Test in all cases: inhibition of tumour cell growth, NCI panel, 48 h
[1] = system: 786-0
[2] = system: A498
[3] = system: A549
[4] = system: ACHN
[5] = system: BT-549
[6] = system: CAKI-1
[7] = system: CCRF-CEM
[8] = system: HL-60
[9] = system: Hs-578T
[10] = system: MDA-MB-231
[11] = system: Malme-3M
[12] = system: OVCAR-3
[13] = system: PC-3
[14] = system: SF-268
[15] = system: SK-OV-3
[16] = system: SR
[17] = system: TK-10
[18] = system: UACC-257
[19] = system: UACC-62
[20] = system: UO-31

| SMILES | GI50 [1] | GI50 [2] | GI50 [3] | GI50 [4] | GI50 [5] | GI50 [6] | GI50 [7] | GI50 [8] | GI50 [9] | GI50 [10] | GI50 [11] | GI50 [12] | GI50 [13] | GI50 [14] | GI50 [15] | GI50 [16] | GI50 [17] | GI50 [18] | GI50 [19] | GI50 [20] |
| --- | --- | --- | --- | --- | --- | --- | --- | --- | --- | --- | --- | --- | --- | --- | --- | --- | --- | --- | --- | --- |
| CC1=NN(c2ccccc2)C(=O)C1/N=N/c1ccc(S(N)(=O)=O)cc1 (centres undefined) | > 100 µM (inactive) | > 100 µM (inactive) | > 100 µM (inactive) | > 100 µM (inactive) | > 100 µM (inactive) | > 100 µM (inactive) | > 100 µM (inactive) | > 100 µM (inactive) | > 100 µM (inactive) | > 100 µM (inactive) | > 100 µM (inactive) | > 100 µM (inactive) | > 100 µM (inactive) | > 100 µM (inactive) | > 100 µM (inactive) | > 100 µM (inactive) | > 100 µM (inactive) | > 100 µM (inactive) | > 100 µM (inactive) | > 100 µM (inactive) |
| C=C1CC(Cn2cc(C)c(=O)[nH]c2=O)(c2ccc(Cl)cc2)OC1=O (centres undefined) | 1.56 µM (inactive) | 5.94 µM (inactive) | 16.6 µM (inactive) | 3.83 µM (inactive) | 1.51 µM (inactive) | 1.83 µM (inactive) | 0.855 µM (active) | 0.863 µM (active) | 6.58 µM (inactive) | 3.05 µM (inactive) | 1.88 µM (inactive) | 3.6 µM (inactive) | 3.08 µM (inactive) | 17.1 µM (inactive) | 14.9 µM (inactive) | 1.17 µM (inactive) | 1.68 µM (inactive) | 1.4 µM (inactive) | 2.44 µM (inactive) | 12.9 µM (inactive) |
| O=C1c2ccccc2C(=O)c2c(NC(=O)C(Cl)CCl)cccc21 (centres undefined) | 2.87 µM (inactive) | 19.2 µM (inactive) | 20.4 µM (inactive) | 13.8 µM (inactive) | 17.1 µM (inactive) | 16.3 µM (inactive) | 0.163 µM (active) | 0.361 µM (active) | 31.3 µM (inactive) | 6.53 µM (inactive) | 18.7 µM (inactive) | 11 µM (inactive) | 9.33 µM (inactive) | 5.7 µM (inactive) | 19 µM (inactive) | < 0.01 µM (active) | 4.37 µM (inactive) | 14.7 µM (inactive) | 10.1 µM (inactive) | 10.6 µM (inactive) |
| CCCCCCCCCC[C@@H](O)[C@H]1CC[C@H]([C@H]2CC[C@H]([C@H](O)CCCCCCCCCC[C@@H]3CC(CC(C)=O)C(=O)O3)O2)O1 (some centres undefined) | 23.2 µM (inactive) | > 28.5 µM (inactive) | 9.93 µM (inactive) | > 28.5 µM (inactive) | 46.2 µM (inactive) | > 47.1 µM (inactive) | 9.23 µM (inactive) | 5.61 µM (inactive) | 7.19 µM (inactive) | > 50 µM (inactive) | 16 µM (inactive) | 15.1 µM (inactive) | 21.7 µM (inactive) | > 50 µM (inactive) | 31.8 µM (inactive) | 0.562 µM (active) | > 39.4 µM (inactive) | 0.914 µM (active) | 1.11 µM (active) | 23.7 µM (inactive) |
| c1cc(C[S+]2CCCC2)sc1C[S+]1CCCC1 | > 100 µM (inactive) | 39.2 µM (inactive) | > 100 µM (inactive) | > 100 µM (inactive) | > 100 µM (inactive) | > 100 µM (inactive) | > 100 µM (inactive) | > 100 µM (inactive) | > 100 µM (inactive) | > 100 µM (inactive) | > 100 µM (inactive) | > 100 µM (inactive) | > 100 µM (inactive) | > 100 µM (inactive) | > 100 µM (inactive) | > 100 µM (inactive) | > 100 µM (inactive) | > 100 µM (inactive) | > 100 µM (inactive) | > 100 µM (inactive) |
| C=C1C(=O)O[C@@H]2CC(CO)=C([C@@H](C)CCCO)[C@@H](OC(=O)/C(C)=C\C)[C@H]12 | 14.8 µM (inactive) | 27.8 µM (inactive) | 21.6 µM (inactive) | 15.1 µM (inactive) | 14.6 µM (inactive) | 22.1 µM (inactive) | 2.29 µM (inactive) | 1.83 µM (inactive) | 21.1 µM (inactive) | 24.9 µM (inactive) | 13.3 µM (inactive) | 7.64 µM (inactive) | 16 µM (inactive) | 15.6 µM (inactive) | 25.9 µM (inactive) | 1.88 µM (inactive) | 18.8 µM (inactive) | 15.6 µM (inactive) | 16 µM (inactive) | 16.8 µM (inactive) |
| COc1ccc(Cn2nc(OCc3ccccn3)c3cc([N+](=O)[O-])ccc32)cc1 | > 100 µM (inactive) | > 100 µM (inactive) | > 100 µM (inactive) | > 100 µM (inactive) | > 100 µM (inactive) | > 100 µM (inactive) | > 100 µM (inactive) | > 100 µM (inactive) | > 100 µM (inactive) | > 100 µM (inactive) | > 100 µM (inactive) | > 100 µM (inactive) | > 100 µM (inactive) | > 100 µM (inactive) | 63.7 µM (inactive) | > 100 µM (inactive) | > 100 µM (inactive) | > 100 µM (inactive) | 35.7 µM (inactive) | > 100 µM (inactive) |
| COc1cc2oc3cc(=O)cc4oc(-c5ccccc5)cc(c2c2c1CCC(c1ccccc1)O2)c43 (centres undefined) | 48.2 µM (inactive) | 50.4 µM (inactive) | 72.8 µM (inactive) | 19.3 µM (inactive) | 80.5 µM (inactive) | 15.7 µM (inactive) | 61 µM (inactive) | 25 µM (inactive) | 85.9 µM (inactive) | 22.3 µM (inactive) | 67.3 µM (inactive) | 26 µM (inactive) | 47.8 µM (inactive) | > 100 µM (inactive) | 35 µM (inactive) | 11.1 µM (inactive) | 26.6 µM (inactive) | 26.7 µM (inactive) | 35.1 µM (inactive) | 55.6 µM (inactive) |
| N#CC(c1ccccc1)(c1ccccc1)[C@@H](c1ccccc1)[C@H](Cc1ccccc1)NS(=O)(=O)c1ccccc1 | > 100 µM (inactive) | > 100 µM (inactive) | > 100 µM (inactive) | > 100 µM (inactive) | > 100 µM (inactive) | > 100 µM (inactive) | > 100 µM (inactive) | 4.17 µM (inactive) | > 100 µM (inactive) | > 100 µM (inactive) | > 100 µM (inactive) | > 100 µM (inactive) | 46.7 µM (inactive) | > 100 µM (inactive) | > 100 µM (inactive) | 83.9 µM (inactive) | > 100 µM (inactive) | > 100 µM (inactive) | > 100 µM (inactive) | > 100 µM (inactive) |
| CN(C)CCCN1c2ccccc2Sc2cnccc21 | 77.1 µM (inactive) | 31 µM (inactive) | > 100 µM (inactive) | 52.8 µM (inactive) | > 100 µM (inactive) | 63.1 µM (inactive) | 93.5 µM (inactive) | 74 µM (inactive) | > 100 µM (inactive) | 42.1 µM (inactive) | > 100 µM (inactive) | 34 µM (inactive) | > 100 µM (inactive) | > 100 µM (inactive) | > 100 µM (inactive) | 34.2 µM (inactive) | 42.4 µM (inactive) | 19.7 µM (inactive) | 38.5 µM (inactive) | > 100 µM (inactive) |
| C[C@@H]1[C@H](O)CC2=C(CC[C@@H](O)C2(C)C)[C@@]1(CO)CCc1ccoc1 | > 50 µM (inactive) | > 50 µM (inactive) | > 50 µM (inactive) | > 50 µM (inactive) | > 50 µM (inactive) | > 50 µM (inactive) | 29.4 µM (inactive) | 15.8 µM (inactive) | > 50 µM (inactive) | > 50 µM (inactive) | > 50 µM (inactive) | > 50 µM (inactive) | 46.3 µM (inactive) | – | > 50 µM (inactive) | 25.1 µM (inactive) | > 50 µM (inactive) | > 50 µM (inactive) | > 50 µM (inactive) | > 50 µM (inactive) |
| CCOC(=O)/C(C(=O)c1ccc[nH]1)=C1/CCCN1C | > 100 µM (inactive) | > 100 µM (inactive) | > 100 µM (inactive) | > 100 µM (inactive) | > 100 µM (inactive) | > 100 µM (inactive) | > 100 µM (inactive) | > 100 µM (inactive) | > 100 µM (inactive) | > 100 µM (inactive) | > 100 µM (inactive) | > 100 µM (inactive) | > 100 µM (inactive) | > 100 µM (inactive) | > 100 µM (inactive) | > 100 µM (inactive) | > 100 µM (inactive) | > 100 µM (inactive) | > 100 µM (inactive) | > 100 µM (inactive) |
| CC1CCN(CC(=O)N2c3ccccc3Sc3cc4ccccc4cc32)CC1 | > 100 µM (inactive) | > 100 µM (inactive) | > 100 µM (inactive) | > 100 µM (inactive) | > 100 µM (inactive) | > 100 µM (inactive) | 84.7 µM (inactive) | 24.7 µM (inactive) | > 100 µM (inactive) | > 100 µM (inactive) | > 100 µM (inactive) | > 100 µM (inactive) | > 100 µM (inactive) | > 100 µM (inactive) | > 100 µM (inactive) | 54.6 µM (inactive) | > 100 µM (inactive) | > 100 µM (inactive) | > 100 µM (inactive) | > 100 µM (inactive) |
| Cc1ccc2c(ccc3[nH]cc(CNc4ccc(NS(C)(=O)=O)cc4)c32)n1 | 17.8 µM (inactive) | 15.6 µM (inactive) | 23.1 µM (inactive) | 33.7 µM (inactive) | 35.4 µM (inactive) | 14 µM (inactive) | 23.6 µM (inactive) | 27.4 µM (inactive) | 27.4 µM (inactive) | 25.3 µM (inactive) | 18.5 µM (inactive) | 19.7 µM (inactive) | 25 µM (inactive) | 23 µM (inactive) | 27.7 µM (inactive) | 21.8 µM (inactive) | 37.7 µM (inactive) | 19.1 µM (inactive) | 16.1 µM (inactive) | 37.7 µM (inactive) |
